PubChem BioAssay AID2401 (Southern Research Specialized Biocontainment Screening …, 2010)

The compounds below were run on S. Typhimurium GFP reporter counter-screen, fluorescence, 4 h (assay: nmpC-GFP reporter counter-screen in S. Typhimurium, dose response, counter-screen for PhoP regulon inhibitor project, Salmonella Typhimurium, GFP fluorescence (AID 2401);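 further: S. typhimurium with Mg-insensitive nmpC-GFP reporter grown at 10 µM Mg2+; drop in reporter fluorescence reflects general culture growth inhibition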).
Work on `Cc1cc2nc3ccc(=[N+](C)C)cc-3sc2cc1N` yielded an IC50 of 36.5 µM. Compound `Cc1ccc(C(C[N+](=O)[O-])c2c(C)cc3ccccn23)cc1` (centres undefined) has an IC50 of 65 µM. In the case of `COc1cc(/C=C/[N+](=O)[O-])ccc1O`, the IC50 is reported as 32.6 µM. In the case of `COc1ccccc1CNCC(O)Cn1c2ccccc2c2ccccc21` (centres undefined), the IC50 is reported as 92 µM. `CCN(CC)CCOc1ccc2c(c1)C(=NNC(=O)c1ccccn1)c1cc(OCCN(CC)CC)ccc1-2` gave an IC50 of 38.1 µM. Work on `Oc1c(CN2CCCCC2)cc(COCc2ccccc2)c2cccnc12` yielded an IC50 of 80.5 µM. `O=C(O)CSc1cc(NS(=O)(=O)c2cccc([N+](=O)[O-])c2)c2ccccc2c1O` showed an IC50 of 83.5 µM. Compound `CO[C@H]1/C=C/O[C@@]2(C)Oc3c(C)c(O)c4c(O)c(c(C=NN5CCN(C)CC5)c(O)c4c3C2=O)NC(=O)/C(C)=C\C=C\[C@H](C)[C@H](O)[C@@H](C)[C@@H](O)[C@@H](C)[C@H](OC(C)=O)[C@@H]1C` has an IC50 of 6.41 µM. `CCn1c(N)[n+](CC(=O)Nc2ccc(SC(F)F)cc2)c2ccccc21` showed an IC50 of 132 µM. For `O=C(N/N=C/c1cccc([N+](=O)[O-])c1O)c1cccs1`, the IC50 was 16.8 µM. With `COc1c(N2CCN(C(=S)NC3CC4CCC3C4)C(C)C2)c(F)cc2c(=O)c(C(=O)O)cn(C3CC3)c12` (centres undefined) the IC50 was 72.9 µM. `CCn1cc(C(=O)O)c(=O)c2cc(F)c(N3CCN(C(=S)NC(=O)c4cccc(C)c4)CC3)cc21` showed an IC50 of 34.7 µM. In the case of `CCn1cc(C(=O)O)c(=O)c2cc(F)c(N3CCN(C(=S)NC(=O)c4cccc(F)c4)CC3)cc21`, the IC50 is reported as 69.6 µM. With `COC(=O)C1C(O)C(C)C(O)C(C)/C=C\C=C(/C)C(=O)Nc2c(C)c(OC(C)=O)c3c(c2O)C(=O)C(C)=C2OCOC(=C23)/C(C)=C/C(C)(O)C(O)C(C)C1O` (centres undefined) the IC50 was 22.2 µM. For `Cc1cc(/C=N/n2c(COc3ccccc3)nc3ccccc3c2=O)c(O)c([N+](=O)[O-])c1`, the IC50 was 56.5 µM. `O=[N+]([O-])c1cc(Cl)c2cccnc2c1O` showed an IC50 of 1.62 µM. With `CCCCCCCCNC(C)C(O)c1ccc(SC(C)C)cc1` (centres undefined) the IC50 was 75.3 µM. In the case of `NCC12CC3CC(C1)CC(c1ccc(Br)cc1)(C3)C2`, the IC50 is reported as 40.3 µM. Compound `O=[N+]([O-])c1cc(/C=N/Nc2nc3ccccc3[nH]2)c(O)cc1O` has an IC50 of 18.2 µM. For `C=CC1=C(C(=O)O)N2C(=O)[C@@H](NC(=O)/C(=N\O)c3csc(N)n3)[C@H]2SC1` (stereo in doubt), the IC50 was 33.3 µM. Compound `O=CN/N=C/c1c(O)ccc2ccccc12` has an IC50 of 37.2 µM. Work on `Oc1cccc(C=NCc2ccccc2)c1O` yielded an IC50 of 144 µM. `Nc1[nH]c(=O)ncc1F` gave an IC50 of 92.7 µM. `COC(=O)C1C(O)C(C)C(O)C(C)(O)/C=C\C=C(/C)C(=O)Nc2c(C)c(OC(C)=O)c3c(c2O)C(=O)C(C)=C2OCOC(=C23)/C(C)=C/C(C)(O)C(O)C(C)C1O` (centres undefined) was tested, and the IC50 was 12.6 µM. `Cc1cc(NC(c2cccnc2)c2ccc3cccnc3c2O)no1` (centres undefined) showed an IC50 of 105 µM. In the case of `Cc1nn(-c2ccccc2)c(N2CCCC2)c1/C=N/Nc1ccc(S(N)(=O)=O)cc1[N+](=O)[O-]`, the IC50 is reported as 88.7 µM. Compound `O=[N+]([O-])c1cc(Cl)c(O)c2ncccc12` has an IC50 of 5 µM. `O=[N+]([O-])c1ccc(-c2ccn[nH]2)o1` gave an IC50 of 39.8 µM. `CCCCCCCCn1c2c(c(=N)c3c1CCC3)CCCC2` gave an IC50 of 70.9 µM. Work on `COc1cc([N+](=O)[O-])cc(/C=N\NC(=O)C2COc3ccccc3O2)c1O` (centres undefined) yielded an IC50 of 85.3 µM. Compound `C[C@H]1COc2c(N3CCN(C)CC3)c(F)cc3c(=O)c(C(=O)O)cn1c23` has an IC50 of 0.37 µM. For `O=C1C(=O)c2ccccc2-c2ccccc21`, the IC50 was 10.7 µM. Work on `O=S1(=O)N=C(N/N=C/c2ccccn2)c2ccccc21` yielded an IC50 of 19.3 µM. `O=C(CSc1ccccn1)N/N=C/c1cc([N+](=O)[O-])ccc1O` gave an IC50 of 34.9 µM. `O=C(N/N=C/c1c[nH]c2ccccc12)c1cc(-c2cccc3ccccc23)n[nH]1` was tested, and the IC50 was 85.3 µM. `O=C(Nc1nnc(-c2cccs2)o1)c1cccc(Oc2ccccc2)c1` showed an IC50 of 40.8 µM. With `O=C(c1ccccc1)c1c2c(cc3sc4ccccc4[n+]13)-c1cccc3cccc-2c13` the IC50 was 82.2 µM. With `O=[N+]([O-])c1cc(CN2CCOCC2)c2cccnc2c1O` the IC50 was 27.2 µM. `Cc1scc(C(=O)N/N=C/c2ccc([N+](=O)[O-])o2)c1C` was tested, and the IC50 was 114 µM. Work on `NC(N)=N/N=C/c1ccc(OCc2ccc(Cl)cc2)cc1` yielded an IC50 of 35.7 µM. `Cc1cc(C)c2ccc(N)nc2c1O` showed an IC50 of 35.7 µM. Work on `Oc1ccc(/C=N/Nc2ncc(Br)cn2)c(O)c1` yielded an IC50 of 71.1 µM. `CCCCOc1ccc(CSC(=N)N)cc1[N+](=O)[O-]` was tested, and the IC50 was 115 µM. `CCCCCCCCCn1c2c(c(=N)c3c1CCC3)CCC2` gave an IC50 of 37.2 µM. Work on `C#CCOCCOCCOCCNc1nc(N2CCN(C(=O)CCCCCCCCCCNC(=O)[C@H](CO)n3cc(CCCCCN)nn3)CC2)nc(N2CCN(C(=O)CCCCCCCCCCNC(=O)[C@H](CCCN=C(N)N)n3cc(C[C@@H](C)CC)nn3)CC2)n1` yielded an IC50 of 86.2 µM. `O=C(C[n+]1cc(-c2ccc(Cl)cc2)n2c1CCC2)Nc1nc(-c2ccc(F)cc2)cs1` was tested, and the IC50 was 38.3 µM. In the case of `Nc1nnc(-c2cccc(Cl)c2Cl)c(N)n1`, the IC50 is reported as 60.5 µM. Compound `CCn1cc(C(=O)O)c(=O)c2cc(F)c(N3CCN(C(=S)NC(=O)c4ccccc4C)CC3)cc21` has an IC50 of 27.6 µM. Compound `CCOc1ccc(Nc2nc(N)c3ccccc3n2)cc1` has an IC50 of 86.2 µM. `Oc1ccc(CN2CCCc3ccccc32)c2cccnc12` gave an IC50 of 28.5 µM. `CCCC(=O)NC(c1ccccc1)c1ccc2cccnc2c1O` (centres undefined) was tested, and the IC50 was 40 µM. Work on `C=CCc1cccc(C2Nc3ccccc3C(=O)N2O)c1O` (centres undefined) yielded an IC50 of 80.9 µM. `Cc1ccc(Nc2c3c(nc4ccccc24)CCC3)cc1` was tested, and the IC50 was 122 µM. `Nc1cccc2nc3ccccc3cc12` showed an IC50 of 26.7 µM. Work on `CCCc1nnc(NC(=O)c2cn(CC)c3cc(N4CCN(C)CC4)c(F)cc3c2=O)s1` yielded an IC50 of 117 µM. In the case of `C1=C(CCNCc2ccccc2)CCCC1`, the IC50 is reported as 7.93 µM. For `COC(=O)c1c(NC(=O)c2ccc([N+](=O)[O-])o2)sc2c1CCN(C(C)C)C2`, the IC50 was 69.3 µM. In the case of `CCCCOc1ccc(Br)cc1CSC(=N)N`, the IC50 is reported as 75.5 µM. `COc1ccc(C(=O)N/N=C/c2sc3ccccc3c2O)cc1` showed an IC50 of 41.5 µM. `CCCCCCCCCCOC(=O)C[N+](C)(C)C/C=C(/C)Cl` showed an IC50 of 44.9 µM. Work on `CCn1cc(C(=O)O)c(=O)c2cc(F)c(N3CCN(C)CC3)cc21` yielded an IC50 of 2.15 µM. `Cc1[nH]n(-c2ccccc2)c(=O)c1C(C[N+](=O)[O-])c1ccc(F)cc1` (centres undefined) was tested, and the IC50 was 78.8 µM. `C=CS(=O)(=O)c1ccc(Oc2ccc(S(=O)(=O)C=C)cc2)cc1` showed an IC50 of 111 µM. With `COc1ccc(C(C[N+](=O)[O-])C2(c3ccc(OC)c(OC)c3)C(=O)c3ccccc3C2=O)cc1` (centres undefined) the IC50 was 23.2 µM. In the case of `CC(C)(C)/C(O)=C/c1nc2cc(Cl)ccc2oc1=O`, the IC50 is reported as 65.1 µM. `CC[C@H]1OC(=O)[C@H](C)[C@@H](O[C@H]2C[C@@](C)(OC)[C@@H](O)[C@H](C)O2)[C@H](C)[C@@H](O[C@@H]2O[C@H](C)C[C@H](N(C)C)[C@H]2O)[C@](C)(O)C[C@@H](C)[C@@H]2N[C@@H](COCCOC)O[C@H]([C@H]2C)[C@]1(C)O` gave an IC50 of 25.1 µM. With `NC1=NC2(CCCCC2)N=C(Nc2ccc(Br)cc2)N1` the IC50 was 119 µM. `N=c1n(Cc2ccccc2)c2ccccc2n1CC(O)COc1ccc(Cl)cc1Cl` (centres undefined) gave an IC50 of 25.9 µM. `Cc1ccc(S(=O)(=O)/N=C2/C=C(Sc3ncn[nH]3)C(=O)c3ccccc32)c(C)c1` gave an IC50 of 149 µM. `CC(C)(C)CC(C)(C)c1ccc(OCCOCC[N+](C)(C)Cc2ccccc2)cc1` gave an IC50 of 32.8 µM. Work on `CCCCOc1ccc(Cc2cnc(N)nc2N)cc1` yielded an IC50 of 38.2 µM. `O=C(O)CCN1C(=O)CC(N2C(=O)/C(=C/c3ccc(Cl)cc3)SC2=S)C1=O` (centres undefined) was tested, and the IC50 was 20.6 µM. `O=C(N/N=C/c1c[nH]c2ccccc12)c1cc(-c2ccc3ccccc3c2)n[nH]1` was tested, and the IC50 was 47.3 µM. `COc1ccc(CNC[C@@H](CCCCN(C)Cc2ccc(OC)cc2)N2C[C@H](c3ccccc3)N(CCc3ccc(Cl)c(Cl)c3)C(=O)C2=O)cc1` gave an IC50 of 45.7 µM.
